Assay results from patent publication US7109185B2, “Pharmaceutical formulations comprising indolinone derivatives” (Sugen, Inc., priority 2001, dated 2006).
Blank lines part the entries; values can stand above or below the compound they belong to.

Tests used:
[1] = system: vascular endothelial growth factor receptor (Flk-1/KDR); conditions: Fong et al. (1999) Cancer Res. 59:99–106; cited from earlier work
[2] = Plasma Stability Test: conversion of prodrug to drug after IV administration to dogs, HPLC analysis of blood plasma; type: in vivo; conditions: IV at 2 mg/mL, blood plasma followed for 4 hours
Experimental: The prodrug (3Z)-3-[(3,5-dimethyl-1H-pyrrol-2-yl)-methylidene]-1-(1-pyrrolidinylmethyl)-1,3-dihydro-2H-indol-2-one was administered IV at 2 mg/mL to dogs. Levels of both prodrug and drug (3(Z)-3-[(3,5-dimethyl-1H-pyrrol-2-yl)-methylidene]-1,3-dihydro-2H-indol-2-one) were followed by HPLC analysis of blood plasma for 4 hours following dosing.

[3] = Hydrolysis (pH stability profile) at pH 7.2 and 7.6; type: physicochemical; conditions: for half-life: buffer, read-out: Half life, t1/2 (hydrolysis)
Excerpt: (3Z)-3-[(3,5-Dimethyl-1H-pyrrol-2-yl)-methylidene]-1-(1-pyrrolidinylmethyl)-1,3-dihydro-2H-indol-2-one is a Mannich base and is designed to hydrolyse to 3-(3,5-dimethyl-1H-pyrrol-2-ylmethylene)-1,3-dihydro-indol-2-one at physiological pH. The stability of (3Z)-3-[(3,5-dimethyl-1H-pyrrol-2-yl)-methylidene]-1-(1-pyrrolidinylmethyl)-1,3-dihydro-2H-indol-2-one is higher at a lower pH. […] The pH stability profile of (3Z)-3-[(3,5-dimethyl-1H-pyrrol-2-yl)-methylidene]-1-(1-pyrrolidinylmethyl)-1,3-dihydro-2H-indol-2-one at pH 7.2 and pH 7.6 is tabulated in table 1.

Compound: Cc1cc(C)c(C=C2C(=O)Nc3ccccc32)[nH]1 [3-(3,5-dimethyl-1H-pyrrol-2-ylmethylene)-1,3-dihydro-indol-2-one]
inhibition of the vascular endothelial growth factor receptor (Flk-1/KDR) [1]: highly active selective inhibitor

melting point: 200 to 202 °C
Compound: Cc1cc(C)c(/C=C2\C(=O)N(CO)c3ccccc32)[nH]1 [Example 1, (3Z)-3-[(3,5-dimethyl-1H-pyrrol-2-yl)-methylidene]-1-(hydroxymethyl)-1,3-dihydro-2H-indol-2-one]

melting point: 160 to 162 °C
Compound: Cc1cc(C)c(/C=C2\C(=O)N(COC(=O)CCC(=O)O)c3ccccc32)[nH]1 [Example 3, 4-({(3Z)-3-[(3,5-dimethyl-1H-pyrrol-2-yl)-methylidene]-2-oxo-2,3-dihydro-1H-indol-1-yl}methoxy)-4-oxobutanoic acid]

melting point: 107 to 110 °C
Compound: CC(=O)OC(C)N1C(=O)/C(=C\c2[nH]c(C)cc2C)c2ccccc21 (stereo not shown) [Example 4, 1-{(3Z)-3-[(3,5-dimethyl-1H-pyrrol-2-yl)-methylidene]-2-oxo-2,3-dihydro-1H-indol-1-yl}ethyl acetate]

melting point: 129 to 132 °C
prodrug converted into drug (area under the curve of drug concentration vs time) [2]: 80%
half-life ([2]; dog): 7.3 min
half-life ([3]; pH 7.2): 6.2 min
half-life ([3]; pH 7.6): 6 min
hydrolysis to 3-(3,5-dimethyl-1H-pyrrol-2-ylmethylene)-1,3-dihydro-indol-2-one ([3]; physiological pH): rapidly hydrolyses
Compound: Cc1cc(C)c(/C=C2\C(=O)N(CN3CCCC3)c3ccccc32)[nH]1 [Example 14, (3Z)-3-[(3,5-dimethyl-1H-pyrrol-2-yl)-methylidene]-1-(1-pyrrolidinylmethyl)-1,3-dihydro-2H-indol-2-one]
